# How the values were obtained:
# [1] = molecular target: Cbl-b (Homo sapiens (Human), UniProt Q13191); assay: Cbl-b LCK Ub TR-FRET assay (Cbl-b Lck HTRF); assay type: biochemical
# Summary of the method: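 Biotin-Cbl-b preincubated with compound (10-point 3-fold series) 60 min, then His-LCK with 1 mM ATP (2× mixture) added for 90 min at room temperature. Ubiquitination detected by TR-FRET using HA-ubiquitin/UBE2D2 adduct, anti-HA-D2 and streptavidin-Eu; IC50 normalised to no-LCK and DMSO controls.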
# [2] = molecular target: c-Cbl (Homo sapiens (Human), UniProt P22681); assay: C-Cbl LCK Ub TR-FRET assay (c-cbl Lck HTRF); assay type: biochemical; conditions: for (fold-selectivity): C-cbl Lck HTRF IC50 relative to Cbl-b Lck HTRF IC50
# Summary of the method: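 Detection reagents added, brief spin, 20 min RT. IC50 fit normalized to no-LCK (low) and DMSO (high) controls.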
# Sequence of c-Cbl (P22681 47-435): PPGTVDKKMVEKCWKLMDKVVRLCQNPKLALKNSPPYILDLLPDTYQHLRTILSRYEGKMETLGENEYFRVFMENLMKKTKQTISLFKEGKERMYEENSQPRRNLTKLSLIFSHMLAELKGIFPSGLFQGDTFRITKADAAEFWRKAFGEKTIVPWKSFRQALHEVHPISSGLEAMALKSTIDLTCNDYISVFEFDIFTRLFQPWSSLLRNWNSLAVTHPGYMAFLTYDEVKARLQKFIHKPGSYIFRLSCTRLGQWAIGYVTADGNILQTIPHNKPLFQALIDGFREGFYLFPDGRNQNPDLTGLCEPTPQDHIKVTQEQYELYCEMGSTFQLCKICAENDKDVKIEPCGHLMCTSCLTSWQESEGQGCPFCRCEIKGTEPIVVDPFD
# Sequence of Cbl-b (Q13191 40-426): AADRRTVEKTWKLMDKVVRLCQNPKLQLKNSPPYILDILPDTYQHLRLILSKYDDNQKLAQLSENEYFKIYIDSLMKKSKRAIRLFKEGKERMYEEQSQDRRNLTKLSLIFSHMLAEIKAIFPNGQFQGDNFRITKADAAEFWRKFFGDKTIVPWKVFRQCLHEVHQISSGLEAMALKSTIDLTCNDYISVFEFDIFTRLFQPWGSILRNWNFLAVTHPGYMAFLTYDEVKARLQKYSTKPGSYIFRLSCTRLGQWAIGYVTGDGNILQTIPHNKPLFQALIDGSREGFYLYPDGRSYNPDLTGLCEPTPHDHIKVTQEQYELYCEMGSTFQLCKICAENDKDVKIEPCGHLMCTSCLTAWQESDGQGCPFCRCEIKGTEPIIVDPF
SMILES,IC50 [1],IC50 [2],(fold-selectivity) [2]
"Cn1cnnc1[C@@H](F)C1(c2cccc(N3Cc4c(cc(CN5CC6(C5)CC6(F)F)cc4C(F)(F)F)C3=O)c2)COC1 [Compound 154, (S)-6-((1,1-difluoro-5-azaspiro[2.3]hexan-5-yl)methyl)-2-(3-(3-(fluoro(4-methyl-4H-1,2,4-triazol-3-yl)methyl)oxetan-3-yl)phenyl)-4-(trifluoromethyl)isoindolin-1-one]",72 nM,230 nM,3.2x
"C[C@@H](NC1(C)CCC1)c1cc2c(c(C(F)(F)F)c1)CN(c1cccc(C3(Cc4nncn4C)CC(F)(F)C3)c1)C2=O [Compound 245, (R)-2-(3-(3,3-difluoro-1-((4-methyl-4H-1,2,4-triazol-3-yl)-methyl)cyclobutyl)phenyl)-6-(1-((1-methylcyclobutyl)amino)ethyl)-4-(trifluoromethyl)-isoindolin-1-one]",13 nM,13 nM,(1.0x)
"COC1(C)CN(Cc2cc3c(c(C(F)(F)F)c2)CN(c2cccc(C4([C@@H](F)c5nncn5C)COC4)c2)C3=O)C1 [Compound 179, (R)-2-(3-(3-(fluoro(4-methyl-4H-1,2,4-triazol-3-yl)methyl)oxetan-3-yl)phenyl)-6-((3-methoxy-3-methylazetidin-1-yl)methyl)-4-(trifluoromethyl)isoindolin-1-one]",54 nM,110 nM,2.1x
"Cn1cnnc1[C@@H](F)C1(c2cccc(N3Cc4c(cc(CN5CCC5)cc4C(F)(F)F)C3=O)c2)CC(F)(F)C1 [Compound 398, (S)-6-(azetidin-1-ylmethyl)-2-(3-(3,3-difluoro-1-(fluoro(4-methyl-4H-1,2,4-triazol-3-yl)methyl)cyclobutyl)phenyl)-4-(trifluoromethyl)isoindolin-1-one]",140 nM,180 nM,(1.3x)
"Cn1cnnc1CC1(c2cc(NCCCN3CCOCC3)nc(N3Cc4c(cc(CNC5(C)CCC5)cc4C(F)(F)F)C3=O)c2)CCC1 [Compound 303, 2-(4-(1-((4-methyl-4H-1,2,4-triazol-3-yl)methyl)cyclobutyl)-6-((3-morpholinopropyl)amino)pyridin-2-yl)-6-(((1-methylcyclobutyl)amino)methyl)-4-(trifluoromethyl)isoindolin-1-one]",310 nM,190 nM,(0.59x)
"Cn1cnnc1CC1(c2cc(OC3CCCC3)cc(N3Cc4c(cc(CNC5(C)CCC5)cc4C(F)(F)F)C3=O)c2)COC1 [Compound 479, 2-(3-(cyclopentyloxy)-5-(3-((4-methyl-4H-1,2,4-triazol-3-yl)methyl)oxetan-3-yl)phenyl)-6-(((1-methylcyclobutyl)amino)methyl)-4-(trifluoromethyl)isoindolin-1-one]",180 nM,290 nM,(1.6x)
"Cn1cnnc1CC1(c2cccc(N3Cc4c(cc(CN5CCN[C@@H](C6CC6)C5)cc4C(F)(F)F)C3=O)c2)CC(F)(F)C1 [Compound 431, (S)-6-((3-cyclopropylpiperazin-1-yl)methyl)-2-(3-(3,3-difluoro-1-((4-methyl-4H-1,2,4-triazol-3-yl)methyl)cyclobutyl)phenyl)-4-(trifluoromethyl)isoindolin-1-one]",48 nM,42 nM,(0.87x)
"Cn1cnnc1CC1(c2cccc(N3Cc4c(cc(CNC5CCCC5)cc4C(F)(F)F)C3=O)c2)CC(F)(F)C1 [Compound 364, 6-((cyclopentylamino)methyl)-2-(3-(3,3-difluoro-1-((4-methyl-4H-1,2,4-triazol-3-yl)methyl)cyclobutyl)phenyl)-4-(trifluoromethyl)isoindolin-1-one]",15 nM,9.7 nM,(0.63x)
"Cn1cnnc1C(F)(F)C1(c2cccc(N3Cc4c(cc(CN)cc4C(F)(F)F)C3=O)c2)CC(F)(F)C1 [Compound 399, 6-(aminomethyl)-2-(3-(1-(difluoro(4-methyl-4H-1,2,4-triazol-3-yl)methyl)-3,3-difluorocyclobutyl)phenyl)-4-(trifluoromethyl)isoindolin-1-one]",510 nM,430 nM,(0.84x)
"Cn1cnnc1[C@@H](F)C1(c2cccc(N3Cc4c(cc(CN5CCC[C@@H]5CO)cc4C(F)(F)F)C3=O)c2)COC1 [Compound 148, 2-(3-(3-((S)-fluoro(4-methyl-4H-1,2,4-triazol-3-yl)methyl)oxetan-3-yl)phenyl)-6-(((R)-2-(hydroxymethyl)pyrrolidin-1-yl)methyl)-4-(trifluoromethyl)isoindolin-1-one]",690 nM,730 nM,1.1x
"CN1CCN(Cc2cc3c(c(C(F)(F)F)c2)CN(c2cccc(C4(Cc5nncn5C)CC(F)(F)C4)c2)C3=O)[C@H](C2CC2)C1 [Compound 433, (R)-6-((2-cyclopropyl-4-methylpiperazin-1-yl)methyl)-2-(3-(3,3-difluoro-1-((4-methyl-4H-1,2,4-triazol-3-yl)methyl)cyclobutyl)phenyl)-4-(trifluoromethyl)isoindolin-1-one]",94 nM,120 nM,(1.3x)
"Cn1cnnc1[C@@H](F)C1(c2cccc(N3Cc4c(cc(CN5CCC[C@H](CO)C5)cc4C(F)(F)F)C3=O)c2)COC1 [Compound 144, 2-(3-(3-((S)-fluoro(4-methyl-4H-1,2,4-triazol-3-yl)methyl)oxetan-3-yl)phenyl)-6-(((S)-3-(hydroxymethyl)piperidin-1-yl)methyl)-4-(trifluoromethyl)isoindolin-1-one]",72 nM,66 nM,0.91x
"Cn1cnnc1[C@H](F)C1(c2cccc(N3Cc4c(cc(CNC5(C)CC5)cc4C(F)(F)F)C3=O)c2)COC1 [Compound 229, (R)-2-(3-(3-(fluoro(4-methyl-4H-1,2,4-triazol-3-yl)methyl)oxetan-3-yl)phenyl)-6-(((1-methylcyclopropyl)amino)methyl)-4-(trifluoromethyl)isoindolin-1-one]",12 nM,10 nM,(0.83x)
"CSc1cc(C2(Cc3nncn3C)CCC2)cc(N2Cc3c(cc(CNC4(C)CCC4)cc3C(F)(F)F)C2=O)n1 [Compound 251, 2-(4-(1-((4-methyl-4H-1,2,4-triazol-3-yl)methyl)cyclobutyl)-6-(methylthio)pyridin-2-yl)-6-(((1-methylcyclobutyl)amino)methyl)-4-(trifluoromethyl)isoindolin-1-one]",11 nM,8.4 nM,(0.76x)
"C[C@@H](c1cc2c(c(C(F)(F)F)c1)CN(c1cccc(C3([C@H](F)c4nncn4C)COC3)c1)C2=O)N1CC(C)(F)C1 [Compound 110, 2-(3-(3-((S)-fluoro(4-methyl-4H-1,2,4-triazol-3-yl)methyl)oxetan-3-yl)phenyl)-6-((S)-1-(3-fluoro-3-methylazetidin-1-yl)ethyl)-4-(trifluoromethyl)isoindolin-1-one]",320 nM,650 nM,2.0x
"COC[C@H]1CCCN1Cc1cc2c(c(C(F)(F)F)c1)CN(c1cccc(C3([C@@H](F)c4nncn4C)COC3)c1)C2=O [Compound 155, 2-(3-(3-((R)-fluoro(4-methyl-4H-1,2,4-triazol-3-yl)methyl)oxetan-3-yl)phenyl)-6-(((R)-2-(methoxymethyl)pyrrolidin-1-yl)methyl)-4-(trifluoromethyl)isoindolin-1-one]",130 nM,240 nM,1.8x
"CN(CCC(C)(C)O)Cc1cc2c(c(C(F)(F)F)c1)CN(c1cccc(C3([C@@H](F)c4nncn4C)COC3)c1)C2=O [Compound 157, (R)-2-(3-(3-(fluoro(4-methyl-4H-1,2,4-triazol-3-yl)methyl)oxetan-3-yl)phenyl)-6-(((3-hydroxy-3-methylbutyl)(methyl)amino)methyl)-4-(trifluoromethyl)isoindolin-1-one]",72 nM,110 nM,1.6x
"CC(C)[C@H]1CN(C)CCN1Cc1cc2c(c(C(F)(F)F)c1)CN(c1cccc(C3([C@H](F)c4nncn4C)COC3)c1)C2=O [Compound 188, 2-(3-(3-((S)-fluoro(4-methyl-4H-1,2,4-triazol-3-yl)methyl)oxetan-3-yl)phenyl)-6-(((S)-2-isopropyl-4-methylpiperazin-1-yl)methyl)-4-(trifluoromethyl)isoindolin-1-one]",13 nM,25 nM,2.0x
"CC(C)Nc1cc(N2Cc3c(cc(CNCC4CC4)cc3C(F)(F)F)C2=O)cc(C2(Cc3nncn3C)CCC2)c1 [Compound 459, 6-(((cyclopropylmethyl)amino)methyl)-2-(3-(isopropylamino)-5-(1-((4-methyl-4H-1,2,4-triazol-3-yl)methyl)cyclobutyl)phenyl)-4-(trifluoromethyl)isoindolin-1-one]",13 nM,8.7 nM,(0.70x)
"Cn1cnnc1[C@H](F)C1(c2cccc(N3Cc4c(cc(CN)cc4C(F)(F)F)C3=O)c2)CC(F)(F)C1.O=CO [Compound 393, (R)-6-(aminomethyl)-2-(3-(3,3-difluoro-1-(fluoro(4-methyl-4H-1,2,4-triazol-3-yl)methyl)cyclobutyl)phenyl)-4-(trifluoromethyl)isoindolin-1-one formate]",130 nM,170 nM,(1.3x)
"Cn1cnnc1[C@H](F)C1(c2cccc(N3Cc4c(cccc4C(F)F)C3=O)c2)COC1 [Compound 59, (R)-4-(difluoromethyl)-2-(3-(3-(fluoro(4-methyl-4H-1,2,4-triazol-3-yl)methyl)oxetan-3-yl)phenyl)isoindolin-1-one]",590 nM,1300 nM,2.1x

# From patent publication US20250230147A1, “LACTAMS AS CBL-B INHIBITORS” (Genentech, Inc., priority 2021, published 2025)
